Where no end group is shown, it is not given here. [ ]: non-standard residue; d: D form.
Tests used:
[1] = test system: PPC1 prostate cancer cells; assay: T7 phage binding and internalization on cultured PPC1 cells; format: cell-based, human; conditions: for effect of trypsin treatment of phage on binding to PPC1 cells: peptide-displaying phage treated with trypsin before cell binding; for phage binding to and internalization into PPC1 cells: peptide displayed at C-terminus of T7 phage coat protein, binding at 4° C., internalization at 37° C. with pH 2.5 wash
Procedure: (§1) To measure phage binding, 10^6 cells in binding buffer (DMEM containing 1% BSA) were incubated with 10^9 pfu/ml of T7 phage for 1 hour at 4° C. The cells were washed 4 times with the binding buffer, lysed in LB bacterial growth medium containing 1% NP-40, and titrated. Phage internalization assays used the same procedure, except that the cells were incubated with the phage at 37° C., and that an acidic buffer (500 mM sodium chloride, 0.1 M glycine, 1% BSA, pH 2.5) was used instead of binding buffer in the second wash.
Inhibitors of phage binding and internalization (heparin, chondroitin, glycocalyx removal enzymes, endocytosis inhibitors, free peptides, quantum dots and UV-inactivated phage) were added to the cells 20 minutes prior to incubation with phage. Endocytosis inhibitors used in this study were the following: nystatin (50 μg/ml), genistein (100 μg/ml), chlorpromazine (5 μg/ml), 5-(N-ethyl-N-isopropyl)amiloride (100 μM), wortmannin (10 μM).
M21 melanoma cells were transiently transfected with these constructs using lipofectamine according to manufacturer's instructions (Invitrogen, Carlsbad, Calif.). Protease treatment of phage and qdots. 10^9 phage particles or 50 μl of peptide-coated qdots phage were treated with 50 iu of uPA, 25 μg of crystalline trypsin, 50 iu of thrombin, or 25 μg of collagenase type I (all Sigma, St. Louis, Mo.).

[2] = test system: orthotopic MIA PaCa-2 human pancreatic carcinoma xenografts; assay: In vivo systemic permeability assay with Evans Blue, pancreatic tumor xenografts; parameters: species or system mice; conditions: 100 nmol (or 100 μg) peptide 5 min after Evans Blue, tissues collected 30 min later
Procedure: FIGS. 5A and 5B show tumor-specific entry of Evans Blue (albumin) into extravascular tumor tissue in iRGD-injected mice. iRGD is SEQ ID NO:3. iRGDD is SEQ ID NO:4. Mice bearing orthotopically transplanted pancreatic or breast cancer xenografts were injected with […] of Evans Blue, followed 5 min later by 100 μg of iRGD peptide in PBS, PBS alone, or a control peptide. Tumors and tissues were collected 30 min. later and examined for dye content. […] About 4 times more dye accumulated in the iRGD-treated tumors than in control tumors. The control peptides included non-CendR RGD peptides.
FIGS. 9A-9D show a tumor-specific entry of Evans Blue into extravascular tumor tissue in iRGD-injected mice. iRGD is SEQ ID NO:3. iRGDD is SEQ ID NO:4. […] (FIGS. 9B to 9D) Quantification of Evans Blue in the pancreatic tumors and tissues. […]
Five min later, the mice received an intravenous injection with 100 μl of PBS with or without iRGD or control peptides at various concentrations. […] For Evans Blue quantification, the dye was extracted from tissues using N,N-dimethylformamide for 24 hours at 37° C. and the dye content was quantified by measuring the absorbance at 600 nm with a spectrophotometer. […] Quantification of the positive area in immunohistochemically stained sections, and total amount of antibodies within the tissues are described elsewhere in this manuscript.

[3] = Stability of methylated iRGD peptides against proteolysis; format: in vitro ADME; conditions: peptide bond protected by C-methylation or N-methylation
live, unfixed cells = assay: Binding and uptake of peptide-functionalized quantum dots by cells; format: cell-based; conditions: streptavidin qdots coated with biotinylated peptide
Procedure: Biotinylated peptides were used to functionalize the 605ITK streptavidin qdots (Invitrogen, Carlsbad, Calif.) according to the manufacturer's instructions.
Streptavidin ITK-605 quantum dots (Invitrogen, Carlsbad, Calif.) were functionalized with biotinylated peptides by incubation with 100 fold molar excess of peptide followed by removal of free peptide by dialysis.

orthotopic 22Rv1 tumors = assay: 22Rv1 xenograft treatment with DOX-liposomes; format: in vivo, mice; conditions: daily i.v. 1 mg DOX/kg + 2 μmol/kg peptide, 17 days, tumor weight
Procedure: (FIGS. 14A and 14B) Nude mice bearing orthotopic 22Rv1 human prostate tumors were intravenously injected with DOX-liposomes (3 mg DOX/kg) followed 5 min later by 100 nmol iRGD or PBS. Tumors and tissues were collected 3 hours later. In (FIG. 14A), the tumors were sectioned and stained with an anti-CD31 antibody. The doxorubicin is represented by the light specs that look like four halos in the left panel. Scale bars=200 μm, n=3. In (FIG. 14B), DOX in the tissues was quantified. […] The tumors were harvested and weighed after 17 days of treatment. The number of mice in each group was 5. One of 3 experiments that gave similar results is shown. (FIG. 14D) TUNEL staining was performed immunohistochemically on tissue sections of the tumor and heart samples from the treatment study, and quantified for positivity. Statistical analyses were performed with Student's r-test in (FIG. 14B), and ANOVA in (FIG. 14C) and (FIG. 14D); error bars, s.e.m.; n.s., not significant; single asterisk, p<0.05; double asterisk, p<0.01; triple asterisk, p<0.001.
Nude mice bearing 2 week-old orthotopic 22Rv1 tumors received daily intravenous injections of DOX-liposomes ([…]) or PBS, combined with 2 μmol/kg iRGD or PBS. The tumors were harvested and weighed after 17 days of treatment. The number of animals in each group was 13. […]

NRP-1 [4] = molecular target: T1, NRP-1 (Homo sapiens, UniProt O14786); assay: Affinity chromatography of PPC-1 tumor extracts on immobilized RPARPAR peptide; format: binding; conditions: PPC-1 tumor extract; confirmed by immunoblotting
T1 construct: from tissue; host or cells: orthotopic PPC-1 prostate tumor xenografts grown in BALB/c athymic nude mice
Procedure: PPC-1 tumors were lysed in PBS containing 200 mM n-octyl-beta-D-glucopyranoside, followed by incubation with RPARPAR (SEQ ID NO:2)-coated Sulfolink-beads (Pierce, Rockford, Ill.) and elution in lysis buffer containing 2 mM free RPARPAR (SEQ ID NO:2) peptide. Gel fragments excised from silver stained gel of eluted fractions were subjected to MALDI-TOF mass spectrometry at the Burnham Institute for Medical Research Proteomics Resource.
Orthotopic PPC-1 tumors were homgenized in PBS containing 400 mM n-octyl-beta-D-glucopyranoside, 1 mM MgSO4, 1 mM MnCl2, 1 mM CaCl2) and 1 tablet/5 ml of EDTA-free protease inhibitors cocktail (Sigma, St. Louis, Mo.). After 6 hours of extraction on a rotating platform at 4° C., the lysate was cleared by centrifugation (20 minutes at 14,000 rpm in refrigerated microcentrifuge) and loaded to an affinity column prepared by coupling cysteine-tagged RPARPAR (SEQ ID NO:2) peptide to Sulfolink coupling gel according to the manufacturer's instructions (Pierce, Rockford, Ill.). After overnight binding, the column was washed with a column wash buffer containing 200 mM n-octyl-beta-D-glucopyranoside, but otherwise identical to the lysis buffer, followed by elution with 2 mM free RPARPAR (SEQ ID NO:2) peptide in the same buffer. […]

NRP-1 [5] = molecular target: T2, NRP-1 (Homo sapiens, UniProt O14786, E348A/S346A/T349A); assay: RPARPAR binding and internalization in M21 melanoma cells with or without NRP-1 expression; format: cell-based; conditions: triple mutation of VEGF-165 binding site in b1 domain
T2 construct: expressed in transfected cells; host or cells: M21 melanoma cells, transient lipofectamine transfection
Procedure: as §1, with “For biopanning and phage binding studies (Hoffman, J. A. et al., 2004), cultured cells were grown to confluence and harvested with trypsin and mouse organs were dissociated using Medimachine (BD Biosciences, San Jose, Calif.). To” for “To”
(§2) Expression construct of the wild type NRP-1 cDNA in pcDNA3.1(+) was a kind gift of Dr. Michael Klagsbrun. Site directed mutagenesis was used to generate triple mutation of the VEGF-165 binding site in the b1 domain of NRP-1 (S346A-E348A-349A) by replacing […] (SEQ ID NO:29; encoding amino acids SKET) with […] (SEQ ID NO:30; encoding AKAA).
(§3) M21 melanoma cells were transiently transfected with these constructs using lipofectamine according to manufacturer's instructions (Invitrogen, Carlsbad, Calif.). Protease treatment of phage and qdots. […]

NRP-1 [6] = assay: as above; format: cell-based; conditions: M21 cells, which do not express NRP-1
Procedure: as §1, with “For biopanning and phage binding studies (Hoffman, J. A. et al., 2004), cultured cells were grown to confluence and harvested with trypsin and mouse organs were dissociated using Medimachine (BD Biosciences, San Jose, Calif.). To” for “To”
as §2, §3

T2 sequence (O14786 22-923 S346A/E348A/T349A): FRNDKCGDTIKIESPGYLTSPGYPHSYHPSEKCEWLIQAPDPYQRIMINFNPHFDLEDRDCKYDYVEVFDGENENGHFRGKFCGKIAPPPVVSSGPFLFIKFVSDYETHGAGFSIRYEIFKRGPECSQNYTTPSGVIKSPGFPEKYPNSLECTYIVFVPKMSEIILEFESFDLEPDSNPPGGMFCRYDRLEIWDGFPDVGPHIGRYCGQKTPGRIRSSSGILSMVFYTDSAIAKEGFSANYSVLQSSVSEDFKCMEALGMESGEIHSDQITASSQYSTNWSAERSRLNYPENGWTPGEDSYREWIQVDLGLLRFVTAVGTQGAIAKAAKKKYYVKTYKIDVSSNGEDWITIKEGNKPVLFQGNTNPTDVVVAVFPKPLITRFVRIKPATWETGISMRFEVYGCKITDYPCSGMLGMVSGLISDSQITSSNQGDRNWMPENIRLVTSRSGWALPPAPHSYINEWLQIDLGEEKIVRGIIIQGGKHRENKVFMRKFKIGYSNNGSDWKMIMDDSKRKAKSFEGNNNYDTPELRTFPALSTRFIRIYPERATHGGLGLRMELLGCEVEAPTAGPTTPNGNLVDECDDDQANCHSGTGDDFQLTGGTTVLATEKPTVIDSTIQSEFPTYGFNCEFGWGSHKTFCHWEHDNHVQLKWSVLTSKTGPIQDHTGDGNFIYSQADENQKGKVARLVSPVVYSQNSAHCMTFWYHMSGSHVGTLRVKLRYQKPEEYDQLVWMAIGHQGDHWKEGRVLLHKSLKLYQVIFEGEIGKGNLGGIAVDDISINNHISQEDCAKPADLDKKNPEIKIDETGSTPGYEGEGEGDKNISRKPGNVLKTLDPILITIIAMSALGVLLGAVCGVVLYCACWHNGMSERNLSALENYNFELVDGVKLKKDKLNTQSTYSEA
T1 sequence (O14786 22-923): as the sequence (O14786 22-923 S346A/E348A/T349A) above, with A325S, A327E, A328T counted along it

CRGDC [non-internalizing, non-CendR RGD peptide, reference compound]
effect of trypsin treatment of phage on binding to PPC1 cells [1]: no effect

CDCRGDCFC [RGD-4C, reference compound]
effect of trypsin treatment of phage on binding to PPC1 cells [1]: no effect | Evans Blue leakage/accumulation in tumor (vascular permeability effect) [2]: inactive

C(CMe)RGDKGPDC
stability against proteolysis [3]: stable against unwanted proteolysis

rparpar ([dR][dP][dA][dR][dP][dA][dR]; also: on quantum dots) [D-rparpar, RPARPAR peptide comprised of D-amino acids, on quantum dots]
binding and uptake of peptide-functionalized quantum dots (live, unfixed cells): greatly reduced ability to trigger uptake of quantum dots

ATWLPPR [A7R, reference compound]
phage binding to and internalization into PPC1 cells [1]: bound to and were taken up by PPC-1 cells

CR(NMe)GDKGPDC
stability against proteolysis [3]: stable against unwanted proteolysis

cyclo(-RGDfK-)
Evans Blue leakage/accumulation in tumor (vascular permeability effect) [2]: inactive | anti-tumor effect of DOX-liposomes 1 mg DOX/kg combined with peptide (orthotopic 22Rv1 tumors): failed to enhance the effect of the drug

RPARPARA
phage binding to and internalization into PPC1 cells [1]: abolished cell binding and internalization | effect of trypsin treatment of phage on binding to PPC1 cells [1]: restored PPC-1 cell binding

RPARPAR [prototypic CendR peptide]
effect of inhibitors of cell internalization pathways on peptide-mediated internalization ([1]; endocytosis inhibitors added 20 minutes before phage): None of the available inhibitors of the various cell internalization pathways inhibited internalization | effect of unlabeled peptide on binding and uptake of VEGF-C7, enhanced tuftsin or A7R phage by PPC-1 cells ([1]; unlabeled peptide included in the binding buffer): both activities were reduced | protein eluted from immobilized peptide with free peptide (NRP-1 [4]): 130-kDa protein, identified by MALDI-TOF mass spectroscopy as NRP-1 | binding by M21 cells transfected with NRP-1 binding pocket mutant (NRP-1 [5]): did not confer | binding and internalization by M21 melanoma cells (NRP-1 [6]): do not bind nor internalize

TKPPR [enhanced tuftsin, reference compound]
phage binding to and internalization into PPC1 cells [1]: bound to and were taken up by PPC-1 cells

Source: patent US11059718B2, “Methods and compositions using peptides and proteins with C-terminal elements” (Sanford Burnham Prebys Medical Discovery Institute, priority 2009, dated 2021)
